Here are results for 16 compounds from patent publication US8378104B2 (OSI Pharmaceuticals, LLC, priority 2010, dated 2013).

SMILES strings stand for the structures. Structures can show the parent of a compound that is named as a salt. Where two headings read alike, the source gives them in different places.

The target in one assay is T1, TAK1-TAB1 fusion protein (Homo sapiens, UniProt O43318).
T1 construct: purchased Carna
T1 sequence (O43318 with tags, fused parts or gaps limits assumed): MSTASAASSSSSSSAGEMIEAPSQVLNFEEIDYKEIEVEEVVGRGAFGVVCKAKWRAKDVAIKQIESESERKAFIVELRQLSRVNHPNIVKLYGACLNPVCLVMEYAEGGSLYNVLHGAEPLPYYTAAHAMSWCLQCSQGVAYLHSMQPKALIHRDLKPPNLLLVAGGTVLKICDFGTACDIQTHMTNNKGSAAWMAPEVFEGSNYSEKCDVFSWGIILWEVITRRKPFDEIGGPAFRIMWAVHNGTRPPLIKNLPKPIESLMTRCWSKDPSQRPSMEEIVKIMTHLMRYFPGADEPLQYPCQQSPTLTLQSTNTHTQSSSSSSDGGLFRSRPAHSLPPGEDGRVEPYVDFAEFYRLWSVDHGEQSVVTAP
The experiment in a line: TAK1 biochemical assay (AlphaScreen, GST-MAP2K7 substrate). For orientation: In Alpha technology, singlet oxygen from a donor bead excites a nearby acceptor bead.

Another assay relates to pJNK in HCT-116 cells. The experiment in a line: Phospho-JNK (Thr183/Tyr185) Meso Scale ELISA assay, TNFα-stimulated HCT-116 cells. Format: cell-based. Particulars: Homo sapiens, read-out: mean HCT-116 pJNK ELISA IC50 (Col. B). The method in brief:
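Meso Scale ELISA read of phospho-JNK (Thr183/Tyr185) in lysed HCT-116 cells. Cells were serum-reduced to 1% FCS for 2 hours, exposed to test drug for 4 hrs at 37° C, then given 10 ng/mL TNFα (final) for 10 minutes before lysis.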
Background: In an ELISA, binding on a coated surface is turned into a signal by an enzyme label.

The test system of the next assay is p-p38 in HCT-116 cells. The experiment in a line: Phospho-p38 Meso Scale ELISA assay, TNFα-stimulated HCT-116 cells. Format: cell-based. Particulars: Homo sapiens, read-out: mean HCT-116 p-p38 ELISA IC50 (Col. C). The method, then:
Detailed below are ELISA assays for pJNK and p38, and a TAK1 biochemical assay. […] In Table 1, Col.
• 1. Plate HCT-116 cells at 25,000 per well in 100 uL in 96 well clear dishes in normal growth medium. Day 2: • 1. Aspirate medium and replace with 90 μl reduced serum growth medium (1% FCS), incubate for 2 hours at 37° C. • 2. Make drugs at 10× in reduced serum medium and add 10 uL per well. • 3. Incubate at 37° C. for 4 hrs. • 4. Bring capture plates to room temperature. • 5. Block with 150 μl Blocking Solution (provided with kit) (600 mg Blocker A into 20 mL 1× Wash Buffer per plate) at room temperature with shaking. • 6. Wash plates 4× with 200 μl 1× wash buffer (10× provided with kit) before transferring lysates. • 7. Dilute TNFα to […] in reduced serum medium (this makes a 10× working stock). • 8. Add 10 μl TNFα to all wells except negative control wells, final concentration is 10 ng/mL. • 9. Incubate at 37° C. for 10 minutes. • 10. Remove medium by flicking into sink • 11. Wash cells with 100 uL ice cold PBS. • 12. Remove PBS by flicking into sink and patting on paper towels. • 13. Lyse cells in 50 μl ice cold 1× Complete Lysis Buffer plus Phosphatase and Protease inhibitors (all provided with kit) (10 mL Tris Lysis Buffer+200 μl Protease inhibitor solution+100 μl Phosphatase inhibitor I+100 μl Phosphatase inhibitor II). • 14. Incubate with shaking at 4° C. for 30 minutes. • 15. Transfer 45 μl to capture plate, cover with adhesive cover, and incubate at 4° C. over night with shaking. • Day 3: • 1. Wash plates 4× with 200 μl 1× wash buffer (10× provided with kit). • 2. […] Incubate at room temperature with shaking for 1 hour. • 4. Wash 4× with 200 μl 1× Wash Buffer. • 5. […] Read on Sector Imager. Phospho-p38 Meso Scale ELISA Assay Day 1: • 1. Plate HCT-116 cells at 25,000 per well in 100 uL in 96 well clear dishes in normal growth medium. zday 2: • 1. Aspirate medium and replace with 90 μl reduced serum growth medium (1% FCS), incubate for 2 hours at 37° C. • 2. Make drugs at 10× in reduced serum medium and add 10 uL per well. • 3. Incubate at 37° C. for 4 hrs. • 4. Bring capture plates to room temperature. • 5. Block with 150 μl Blocking Solution (provided with kit) (600 mg Blocker A into 20 mL 1× Wash Buffer per plate) at room temperature with shaking. • 6. Wash plates 4× with 200 μl 1× wash buffer (10× provided with kit) before transferring lysates. • 7. Dilute TNFα to […] in reduced serum medium (this makes a 10× working stock). • 8. Add 10 μl TNFα to all wells except negative control wells, final concentration is 10 ng/mL. • 9. Incubate at 37° C. for 10 minutes. • 10. Remove medium by flicking into sink • 11. Wash cells with 100 uL ice cold PBS. • 12. Remove PBS by flicking into sink and patting on paper towels. • 13. Lyse cells in 50 μl ice cold 1× Complete Lysis Buffer plus phosphatase and protease inhibitors (all provided with kit) (10 mL Tris Lysis Buffer+200 μl Protease inhibitor solution+100 μl Phosphatase inhibitor I+100 μl Phosphatase inhibitor II). • 14. Incubate with shaking at 4° C. for 30 minutes. • 15. Dilute lysates before transferring to capture plate with 100 μl Complete p38 Lysate • Dilution Buffer (provided with kit) (10 mL of Diluent 20±200 μl Protease inhibitor solution+100 μl Phosphatase inhibitor I+100 μl Phosphatase inhibitor II). • 16. Transfer 50 μl of diluted lysates to capture plate, cover with adhesive cover, and incubate at 4° C. over night with shaking. Day 3: • 1. Wash plates 4× with 200 μl 1× wash buffer (10× provided with kit). • 2. […] Incubate at room temperature with shaking for 1 hour. • 4. Wash 4× with 200 μl 1× Wash Buffer. • 5. […] Read on Sector Imager. TAK1 Biochemical Assay

Where [1] appears, read: TAK1-TAB1 fusion protein, GST-MAP2K7 substrate, read-out: mean TAK1 IC50 (Col. A).

The term IC50 denotes the concentration that inhibits the measured activity by half. On to `Nc1ncc(-c2cnn(C3CCN(C(=O)C4CCC4)CC3)c2)c2cc(-c3cccc4cnccc34)oc12` [Example 53, (4-{4-[7-amino-2-(isoquinolin-5-yl)furo[2,3-c]pyridin-4-yl]-1H-pyrazol-1-yl}piperidin-1-yl)(cyclobutyl)methanone], for which the IC50 at TAK1-TAB1 fusion protein (setting [1]) is 100 to 1000 nM; in the assay on pJNK in HCT-116 cells it was under 100 nM; in the assay with p-p38 in HCT-116 cells, 100 to 1000 nM.
With `Nc1ncc(-c2cnn(C[C@@H](O)CO)c2)c2cc(-c3csc4cnccc34)oc12` [Example 317, (R)-3-[4-(7-amino-2-thieno[2,3-c]pyridin-3-yl-furo[2,3-c]pyridin-4-yl)-pyrazol-1-yl]-propane-1,2-diol], the IC50 was under 100 nM at TAK1-TAB1 fusion protein (setting [1]), 1000 to 10000 nM in the assay with pJNK in HCT-116 cells and 1000 to 10000 nM with p-p38 in HCT-116 cells.
For the compound `Nc1ncc(-c2cnn([C@H]3CC[C@H](O)CC3)c2)c2cc(-c3ccc4[nH]ncc4c3)oc12` [Example 402, trans-4-{4-[7-amino-2-(1H-indazol-5-yl)furo[2,3-c]pyridin-4-yl]-1H-pyrazol-1-yl}cyclohexanol], the IC50 fell in the range of 100 to 1000 nM at TAK1-TAB1 fusion protein (setting [1]), 100 to 1000 nM in the assay with pJNK in HCT-116 cells and 1000 to 10000 nM with p-p38 in HCT-116 cells.
On to `CS(=O)(=O)N1CCC(n2cc(-c3cnc(N)c4oc(-c5cccc6cnccc56)cc34)cn2)CC1` [Example 80, 2-(isoquinolin-5-yl)-4-{1-[1-(methylsulfonyl)piperidin-4-yl]-1H-pyrazol-4-yl}furo[2,3-c]pyridin-7-amine], for which the IC50 at TAK1-TAB1 fusion protein (setting [1]) was 100 to 1000 nM; in the assay with pJNK in HCT-116 cells it was under 100 nM; in the assay with p-p38 in HCT-116 cells, 100 to 1000 nM.
In the case of `CC(C)n1cc(-c2cnc(N)c3oc(-c4cccc5cnccc45)cc23)cn1` [Example 60, 2-(isoquinolin-5-yl)-4-[1-(propan-2-yl)-1H-pyrazol-4-yl]furo[2,3-c]pyridin-7-amine], the IC50 at TAK1-TAB1 fusion protein (setting [1]), in the assay on pJNK in HCT-116 cells and with p-p38 in HCT-116 cells was 100 to 1000 nM in each case.
As to `Nc1ncc(-c2cnn(C3CCNCC3)c2)c2cc(-c3ccc4[nH][nH]c(=O)c4c3)oc12` [Example 55, 5-{7-amino-4-[1-(piperidin-4-yl)-1H-pyrazol-4-yl]furo[2,3-c]pyridin-2-yl}-1,2-dihydro-3H-indazol-3-one trifluoroacetic acid salt], the IC50 is under 100 nM on TAK1-TAB1 fusion protein (setting [1]), over 10000 nM with pJNK in HCT-116 cells and over 10000 nM with p-p38 in HCT-116 cells.
In the case of `Nc1ncc(-c2cnn([C@H]3CC[C@H](O)CC3)c2)c2cc(-c3csc4cnc(F)cc34)oc12` [Example 249, trans-4-{4-[7-amino-2-(5-fluorothieno[2,3-c]pyridin-3-yl)furo[2,3-c]pyridin-4-yl]-1H-pyrazol-1-yl}cyclohexanol], the IC50 at TAK1-TAB1 fusion protein (setting [1]), in the assay with pJNK in HCT-116 cells and in the assay on p-p38 in HCT-116 cells was under 100 nM throughout.
Consider `CC(C)(C)OC(=O)N1CCC(n2cc(-c3cnc(N)c4oc(-c5cccc6cnsc56)cc34)cn2)CC1` [Example 302, 4-[4-(7-amino-2-benzo[d]isothiazol-7-yl-furo[2,3-c]pyridin-4-yl)-pyrazol-1-yl]-piperidine-1-carboxylic acid tert-butyl ester], for which the values for the IC50 on TAK1-TAB1 fusion protein (setting [1]), in the assay with pJNK in HCT-116 cells and in the assay on p-p38 in HCT-116 cells were 100 to 1000 nM, 100 to 1000 nM and 1000 to 10000 nM, respectively.
Take `CC1(C)OC[C@@H](Cn2cc(-c3cnc(N)c4oc(-c5csc6cnccc56)cc34)cn2)O1` [Example 297, 4-[1-((R)-2,2-dimethyl-[1,3]dioxolan-4-ylmethyl)-1H-pyrazol-4-yl]-2-thieno[2,3-c]pyridin-3-yl-furo[2,3-c]pyridin-7-ylamine]: the IC50 was 100 to 1000 nM on TAK1-TAB1 fusion protein (setting [1]), 100 to 1000 nM in the assay on pJNK in HCT-116 cells and 1000 to 10000 nM in the assay with p-p38 in HCT-116 cells.
With `Nc1ncc(-c2cn[nH]c2)c2cc(-c3cccc4cnccc34)oc12` [Example 69, 2-(isoquinolin-5-yl)-4-(1H-pyrazol-4-yl)furo[2,3-c]pyridin-7-amine], the IC50 on TAK1-TAB1 fusion protein (setting [1]) is 1000 to 10000 nM; in the assay with pJNK in HCT-116 cells, 100 to 1000 nM; in the assay with p-p38 in HCT-116 cells it was 100 to 1000 nM.
Regarding `CC(=O)N1CCC(n2cc(-c3cnc(N)c4oc(-c5ccc6occc6c5)cc34)cn2)CC1` [Example 114, 1-(4-{4-[7-amino-2-(1-benzofuran-5-yl)furo[2,3-c]pyridin-4-yl]-1H-pyrazol-1-yl)piperidin-1-yl]ethanone], the results for the IC50 at TAK1-TAB1 fusion protein (setting [1]), with pJNK in HCT-116 cells and with p-p38 in HCT-116 cells were 1000 to 10000 nM, 100 to 1000 nM and 100 to 1000 nM, respectively.
As to `CC(=O)N1CCC(n2cc(-c3cnc(N)c4oc(-c5cccc6nn(C)cc56)cc34)cn2)CC1` [Example 192, 1-(4-{4-[7-amino-2-(2-methyl-2H-indazol-4-yl)furo[2,3-c]pyridin-4-yl]-1H-pyrazol-1-yl}piperidin-1-yl)ethanone], the IC50 on TAK1-TAB1 fusion protein (setting [1]), in the assay on pJNK in HCT-116 cells and with p-p38 in HCT-116 cells was 1000 to 10000 nM throughout.
As for `CC(=O)N1CCC(n2cc(-c3cnc(N)c4oc(-c5ccc6[nH]nnc6c5)cc34)cn2)CC1` [Example 158, 1-(4-{4-[7-amino-2-(1H-benzotriazol-5-yl)furo[2,3-c]pyridin-4-yl]-1H-pyrazol-1-yl}piperidin-1-yl)ethanone], the IC50 at TAK1-TAB1 fusion protein (setting [1]) is under 100 nM; with pJNK in HCT-116 cells it was over 10000 nM; with p-p38 in HCT-116 cells it was over 10000 nM.
Take `CC(=O)N1CCC(n2cc(-c3cnc(N)c4oc(-c5cccn6ccnc56)cc34)cn2)CC1` [Example 221, 1-(4-{4-[7-amino-2-(imidazo[1,2-a]pyridin-8-yl)furo[2,3-c]pyridin-4-yl]-1H-pyrazol-1-yl}piperidin-1-yl)ethanone bis(trifluoroacetate)]: the IC50 at TAK1-TAB1 fusion protein (setting [1]), in the assay on pJNK in HCT-116 cells and with p-p38 in HCT-116 cells was 100 to 1000 nM throughout.
`CC(=O)N1CCC(n2cc(-c3cnc(N)c4oc(-c5csc6ccccc56)cc34)cn2)CC1` [Example 219, 1-(4-{4-[7-amino-2-(1-benzothiophen-3-yl)furo[2,3-c]pyridin-4-yl]-1H-pyrazol-1-yl}piperidin-1-yl)ethanone]: the IC50 on TAK1-TAB1 fusion protein (setting [1]), with pJNK in HCT-116 cells and in the assay on p-p38 in HCT-116 cells was 100 to 1000 nM throughout.
Consider `Nc1ncc(-c2cnn([C@H]3CC[C@H](O)CC3)c2)c2cc(-c3cccc4nnsc34)oc12` [Example 229, trans-4-{4-[7-amino-2-(1,2,3-benzothiadiazol-7-yl)furo[2,3-c]pyridin-4-yl]-1H-pyrazol-1-yl}cyclohexanol], for which the IC50 on TAK1-TAB1 fusion protein, in the assay with pJNK in HCT-116 cells and in the assay on p-p38 in HCT-116 cells was under 100 nM each time.
